Among the test systems are SK-OV-3; MDA-MB-231; SF-539; ACHN; MDA-N; MCF7; SK-MEL-28; UO-31; TK-10; HCC 2998; CAKI-1; NCI-H522; RXF 393; PC-3; NCI/ADR-RES; SW-620; KM12; SN12C; OVCAR-5; HOP-92.
Test in all cases: NCI-60 cell line screen, 48 h

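Values below derive from 48-hour exposures of cells grown in 96-well plates, with endpoints linearly interpolated between the two concentrations bracketing the appropriate inhibition level. GI50 is the concentration that inhibits growth by half.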 Activity calls are given as the source filed them. Cut-off read from the data, not from the text of the source: active = GI50 up to about 1.1 µM and inactive = higher. Some results are limits rather than exact numbers.

For the molecule `O=C(Nc1cc(C(=O)Nc2cccc(S(=O)(=O)O)c2)cc(C(=O)Nc2cccc(S(=O)(=O)O)c2)c1)c1cccc(C(=O)Nc2cc(C(=O)Nc3cccc(S(=O)(=O)O)c3)cc(C(=O)Nc3cccc(S(=O)(=O)O)c3)c2)c1`, the GI50 with SK-OV-3, with MDA-MB-231, in the assay with SF-539, with ACHN, in the assay with MDA-N and with MCF7 was > 100 µM (inactive) each time. The GI50 in the assay with SK-MEL-28, in the assay on UO-31, in the assay on TK-10, in the assay on HCC 2998, in the assay with CAKI-1 and in the assay with NCI-H522 was > 100 µM (inactive) throughout. Also, the GI50 in the assay with RXF 393 was > 100 µM (inactive); in the assay with PC-3 it was > 100 µM (inactive); in the assay with NCI/ADR-RES it was > 100 µM (inactive); in the assay with SW-620, > 100 µM (inactive); in the assay on KM12, 30.7 µM (inactive); in the assay on SN12C, > 100 µM (inactive). Moreover, in the assay on OVCAR-5, the GI50 is > 100 µM (inactive).
For the molecule `CCN(/C=C1/C(=O)C(c2ccccc2)N(c2ccccc2)C1=O)CC` (stereo unspecified), the GI50 in the assay on SK-OV-3, with MDA-MB-231, in the assay with SF-539, with ACHN, in the assay on MDA-N and with MCF7 was > 10 µM (inactive) each time. Also, the GI50 in the assay with SK-MEL-28, in the assay with UO-31, in the assay with TK-10, in the assay with HCC 2998, in the assay with CAKI-1 and in the assay with NCI-H522 was > 10 µM (inactive) throughout. Moreover, the GI50 with RXF 393, in the assay with PC-3, with NCI/ADR-RES, with SW-620, in the assay with KM12 and with SN12C was > 10 µM (inactive) in each case. Also, the GI50 with OVCAR-5 was > 10 µM (inactive).
Regarding `O=C(N/N=C(COc1ccc([N+](=O)[O-])cc1)\N=C\c1ccncc1)c1ccncc1`, the GI50 in the assay with SK-OV-3, with MDA-MB-231, with SF-539, with ACHN, in the assay with MDA-N and with MCF7 was > 100 µM (inactive) each time. Also, the GI50 in the assay on SK-MEL-28, with TK-10, in the assay with HCC 2998, with CAKI-1, in the assay with NCI-H522 and in the assay on RXF 393 was > 100 µM (inactive) throughout. Also, the GI50 with PC-3, with NCI/ADR-RES, with SW-620, with KM12, with SN12C and with OVCAR-5 was > 100 µM (inactive) each time.
Consider `COc1cc(OC)c2c(=O)c(OC)c(-c3ccc4c(c3)OCO4)oc2c1`, for which the GI50 in the assay on SK-OV-3 is 22.8 µM (inactive); in the assay on MDA-MB-231 it was 49.9 µM (inactive); with SF-539, 18.1 µM (inactive); in the assay with ACHN, 33.6 µM (inactive); with MDA-N it was > 100 µM (inactive); with MCF7, > 100 µM (inactive). Besides, the GI50 in the assay with SK-MEL-28 is > 100 µM (inactive); in the assay with UO-31, > 100 µM (inactive); in the assay with TK-10 it was 45 µM (inactive); in the assay with HCC 2998 it was > 100 µM (inactive); in the assay on CAKI-1 it was 21 µM (inactive); in the assay on NCI-H522, 38.3 µM (inactive). For the same molecule, the GI50 is 28.1 µM (inactive) in the assay on RXF 393; 84.7 µM (inactive) in the assay on PC-3; 46.9 µM (inactive) in the assay on NCI/ADR-RES; > 100 µM (inactive) in the assay with SW-620; > 100 µM (inactive) in the assay on KM12; 59.7 µM (inactive) in the assay with SN12C. Besides, the GI50 with OVCAR-5 was > 100 µM (inactive).
Turning to `Cc1cn(CC2=NCC(C)N2)c(=O)[nH]c1=O` (stereo unspecified), the GI50 in the assay on SK-OV-3, with MDA-MB-231, with ACHN, with MDA-N, with MCF7 and in the assay on SK-MEL-28 was > 100 µM (inactive) in each case. Further, the GI50 in the assay on UO-31, with TK-10, in the assay on HCC 2998, in the assay with NCI-H522, in the assay with RXF 393 and with PC-3 was > 100 µM (inactive) throughout. The GI50 in the assay on NCI/ADR-RES, in the assay on SW-620, in the assay on SN12C, with OVCAR-5 and in the assay with HOP-92 was > 100 µM (inactive) each time.
As to `CCOC(=O)CC(=O)Nc1cccc2sc3ncccc3c(=O)c12`, the GI50 in the assay with SK-OV-3 was 22.4 µM (inactive); in the assay with MDA-MB-231, 60.8 µM (inactive); in the assay on SF-539, 41.7 µM (inactive); in the assay with ACHN it was 33.3 µM (inactive); with MDA-N it was 76.7 µM (inactive); with MCF7, 0.57 µM (active). The GI50 in the assay on SK-MEL-28 is 47.8 µM (inactive); in the assay on UO-31 it was 25.7 µM (inactive); with TK-10, 34.4 µM (inactive); in the assay with HCC 2998 it was 25.9 µM (inactive); in the assay with CAKI-1 it was 27.9 µM (inactive); with NCI-H522 it was 45.4 µM (inactive). For the same molecule, the GI50 is 3.09 µM (inactive) in the assay on RXF 393; 5.81 µM (inactive) in the assay on PC-3; 36.8 µM (inactive) in the assay with NCI/ADR-RES; > 100 µM (inactive) in the assay on SW-620; 77.4 µM (inactive) with KM12; 51.8 µM (inactive) in the assay on SN12C. Besides, the GI50 in the assay with OVCAR-5 was 20.3 µM (inactive).
Turning to `O=C1NC(Nc2ccccc2)=NC(C(F)(F)F)(C(F)(F)F)N1`, the GI50 in the assay on SK-OV-3 was 64 µM (inactive); in the assay on MDA-MB-231, 57.1 µM (inactive); in the assay with SF-539 it was 74.5 µM (inactive); with ACHN it was 35.1 µM (inactive); in the assay on MDA-N, 25.1 µM (inactive); in the assay with MCF7, 37.9 µM (inactive). Also, the GI50 in the assay on SK-MEL-28 is 47.2 µM (inactive); in the assay on UO-31 it was 30.8 µM (inactive); in the assay with TK-10, 68.4 µM (inactive); with HCC 2998, 46.7 µM (inactive); in the assay on PC-3, 20.5 µM (inactive); in the assay with NCI/ADR-RES, 71.1 µM (inactive). Further, the GI50 in the assay on SW-620 was 71.8 µM (inactive); with KM12, 41.6 µM (inactive); in the assay on SN12C, 36.6 µM (inactive); in the assay with OVCAR-5 it was 42.8 µM (inactive); with HOP-92, 20.7 µM (inactive).
Regarding `CCCC(=O)NC1=C(NCC)C(=O)c2ccccc2C1=O`, the GI50 in the assay with SK-OV-3 was > 100 µM (inactive); with MDA-MB-231, 83.4 µM (inactive); in the assay with SF-539, > 100 µM (inactive); in the assay with ACHN, > 100 µM (inactive); in the assay with MDA-N, 20.8 µM (inactive); in the assay on MCF7, 63.5 µM (inactive). The GI50 in the assay with SK-MEL-28 is 95.7 µM (inactive); in the assay with TK-10, > 100 µM (inactive); in the assay with HCC 2998, 86.3 µM (inactive); in the assay on NCI-H522, 25.9 µM (inactive); in the assay with RXF 393 it was 48.3 µM (inactive); in the assay on PC-3, 40.9 µM (inactive). Moreover, the GI50 is > 10 µM (inactive) in the assay with NCI/ADR-RES; 33.4 µM (inactive) in the assay with SW-620; 52.4 µM (inactive) in the assay on KM12; > 100 µM (inactive) with SN12C; > 100 µM (inactive) in the assay on OVCAR-5; > 100 µM (inactive) with HOP-92.

The values are drawn from ChEMBL document CHEMBL1201862, “PubChem BioAssay data set” (2004).
